Results taken from patent US20240009224A1, “ACYCLIC THREONINOL NUCLEIC ACID” (The University of Tokyo, priority 2021, published 2024).
{Fluorescein} = fluorescein label

Test system: HeLa cells
Assay: Flow cytometry of HeLa cells after introduction of fluorescein-labeled nucleic acid (cell membrane permeability)
Format: cell-based
Conditions: fluorescein-labeled control DNA = 1
Method: HeLa cells were cultured in Dulbecco's modified Eagle's medium (DMEM, manufactured by Thermo Fisher Scientific, Inc.) supplemented with 10% FBS and 0.5% penicillin/streptomycin in a humidified atmosphere (5 vol % CO2) at 37° C. Cells for image analysis were cultured in a 35 mm glass bottom dish (IWAKI, manufactured by AGC Techno Glass Co., Ltd.).
[…] On the day after seeding, the medium in each well was changed to DMEM medium (1 mL) containing a fluorescein-conjugated nucleic acid (2.5 μM) and incubated for 4 or 24 hours. Then, after washing the cell layer in the well twice with PBS, the cells were detached by treatment with 0.05% (w/v) trypsin (200 μL) at 37° C. for 5 minutes. The recovered cells were suspended in DMEM (600 μL). The cell suspension was separated by centrifugation process (400×g, 3 minutes), and PBS/1% BSA (500 μL) was added thereto. The ratio of fluorescent cells in this cell suspension and the mean fluorescence intensity were analyzed with a flow cytometer (“guava easyCyte8”, manufactured by Luminex Corporation).
After introducing a nucleic acid (fluorescein-labeled aTNA-N5[PFC8]) in which fluorescein was bound to the 3′-end of the synthesized aTNA-N5[PFC8] into HeLa cells, flow cytometry was performed, and the number of cells into which the fluorescein-labeled nucleic acid was introduced and the amount of fluorescein-labeled nucleic acid introduced into each cell were quantified based on the fluorescence intensity of fluorescein. As a control, a nucleic acid in which fluorescein was bound to the 3′-end of the control DNA (fluorescein-labeled control DNA) was also introduced into HeLa cells in the same manner and then analyzed by flow cytometry.
The fluorescein-labeled aTNA-N5[PFC8] produced in Example 1 was hybridized with a single-stranded DNA (control rDNA) composed of a base sequence (SEQ ID NO: 2) complementary to that of the control DNA to produce a fluorescein-labeled double-stranded DNA (fluorescein-labeled aTNA-N5[PFC8]/rDNA) having a repeating structure of the structure (A1) at the 5′-end and bound with fluorescein at the 3′-end. […] These fluorescein-labeled double-stranded DNAs were introduced into HeLa cells and then analyzed by flow cytometry in the same manner as in Example 1.
After respectively introducing nucleic acids (fluorescein-labeled aTNA-C2[PFC8] and fluorescein-labeled aTNA-C5[PFC8]) in which fluorescein was bound to the 3′-ends of the synthesized aTNA-C2[PFC8] and aTNA-C5[PFC8] into HeLa cells, flow cytometry was performed, and the number of cells into which the fluorescein-labeled nucleic acid was introduced and the amount of fluorescein-labeled nucleic acid introduced into each cell were quantified based on the fluorescence intensity of fluorescein. […]

Measured: Relative fluorescence intensity of cells into which fluorescein-labeled nucleic acid was introduced

Control DNA: control DNA (Seq. No. 1), natural single stranded DNA; fluorescein bound to the 3′-end (DNA TTTTTCAGTTGACCATATA; DNA, 3' {Fluorescein}, backbone and methylation of C not given here)
1.0: Example 1, single-stranded, 2.5 μM, 4 or 24 hours | Example 3, single-stranded | Example 4, single-stranded, 96-well plate, 10^4 cells per well, 2.5 μM, 4 hours | Example 6, single-stranded, 96-well plate, 10^4 cells per well, 2.0 μM, 4 hours
